The text below walks through data of patent US9598363B2, “Plant growth regulating compounds” (SYNGENTA PARTICIPATIONS AG, priority 2013, dated 2017).

The test system of data set [1] is Orobanche cumana Wallr. seeds. Put plainly: Orobanche cumana seed germination test on glass fiber filter paper in petri dishes. It counts as in vivo. Conditions: preconditioned Orobanche cumana seeds, N = 5 × 100 seeds. As for the experimental part:
The effect of compounds of Formula (I) on germination of Orobanche cumana Wallr. seeds was evaluated on glass fiber filter paper (GFFP) in petri dishes. Seeds were preconditioned at moisture and suitable temperature to become responsive to the specific chemical germination stimulants.
Test compounds were dissolved in DMSO (10,000 mg/L) and stored at room temperature in a desiccators with desiccants. The stock solutions were dissolved with deionised water to the appropriate final test concentration.
Seeds of O. cumana race ‘F’ were collected from sunflower fields in Manzanilla (Seville, Spain) in 2008 (seed lot IN153) and stored at room temperature. To separate seeds from heavy organic debris, a modified sucrose floatation technique as described by Hartman & Tanimonure (Plant Disease (1991), 75, p. 494) was applied. Seeds were filled into a separation funnel and stirred in water. When seeds floated to the surface, the water fraction containing heavy debris was discarded. Seeds were re-suspended in 2.5 M sucrose solution (specific gravity of 1.20) and heavy debris was allowed to settle down for 60 min. After removing debris, seeds were disinfected in 1% sodium hypochlorite solution and 0.025% (v/v) Tween 20 for 2 min. The seeds were decanted onto two layers of cheesecloth, rinsed with sterile deionised water and re-suspended in sterile deionised water. 2 mL of the seed suspension containing approximately 150-400 seeds was spread evenly on two layers of sterile glass fiber filter paper disc ([…]) in Petri dishes (Ø9 cm). After wetting the discs with 3 mL sterile deionised water, petri dishes were sealed with parafilm. Seeds were incubated for 10 days at 20° C. in the dark for seed conditioning. The upper disc with conditioned seeds was briefly dried, transferred to a petri dish lined with a dry GFFP disc, and wetted with 6 mL of the appropriate test solution. The compounds of Formula (I) were tested at concentrations of 0.01, 0.1, and 1 mg/L. The strigolactone analogue GR24 (commercially available as a mixture of isomers) was included as positive control and 0.01% DMSO as negative control. All treatments were tested in five replicates. Seeds were re-incubated at 20° C. in the dark and examined for germination 10 days later. The radicles of germinated seeds were stained for 5 min with blue ink (PELIKAN #4001, Germany) in 5% acetic acid according to Long et al. (Seed Science Research (2008), 18, p. 125). After staining, seeds were photographed using a camera stand mounted with a digital SLR camera (Canon EOS 5D). Germination of 100 seeds per replicate was evaluated on digital images. Seeds were considered germinated when the radicle protruded from the seed coat.

[2] abbreviates: 1 mg/L, control (0.01% DMSO): 0.75% germination.
Setting [3] is: concentration 0.01 mg/L, control (0.01% DMSO): 1.4% germination.
Where [4] appears, read: concentration 0.1 mg/L, control (0.01% DMSO): 1.4% germination.
The mark [5] stands for this setting: concentration 1 mg/L, control (0.01% DMSO): 1.4% germination.

Consider `COCN1C(=O)C(C)=CC1OC(=O)NCc1ccccc1` (stereo not shown) [Ia-1, [1-(methoxymethyl)-4-methyl-5-oxo-2H-pyrrol-2-yl]N-benzylcarbamate], for which, in data set [1] (setting [2]), the “Germination (%)” value is 86.8%.

`CC1=CC(OC(=O)NCc2ccccc2)OC1=O` (stereo not shown) [reference compound]: the “Germination (%)” value in data set [1] (setting [3]) is on record as 8.8%; in data set [1] (setting [4]), 41.8%; in data set [1] (setting [5]), 82.6%. Take `CC1=CC(OC(=O)NCc2ccccc2)N(C2CC2)C1=O` (stereo not shown) [Ia-6, (1-cyclopropyl-4-methyl-5-oxo-2H-pyrrol-2-yl) N-benzylcarbamate]: the “Germination (%)” value in data set [1] (setting [2]) stood at 76.4%.

In turn, `C#CCN1C(=O)C(C)=CC1Oc1ccc(Br)cc1` (stereo not shown) yielded a melting point of 92 to 94 °C. Turning to `CC1=CC(O/C=C2/C(=O)OC3c4ccccc4CC23)OC1=O` (stereo not shown) [reference compound], the results for the “Germination (%)” value in data set [1] (setting [3]), in data set [1] (setting [4]) and in data set [1] (setting [5]) were 65%, 78.4% and 86.6%, respectively. Taken in the same sequence, the figures for `CC1=CC(OC(=O)NCc2ccccc2)N(C)C1=O` (stereo not shown) [drawing 24] were 60.8%, 67.4% and 76.6%.

`CC1=CC(OC(=O)NCc2ccccc2)N(C)C1=O` (stereo not shown) [Ia-2, (1,4-dimethyl-5-oxo-2H-pyrrol-2-yl) N-benzylcarbamate] came in with a melting point of 106 °C. Moreover, in data set [1] (setting [2]), the “Germination (%)” value amounted to 76.6%. As for `CON1C(=O)C(C)=CC1OC(=O)NCc1ccccc1` (stereo not shown) [Ia-3, (1-methoxy-4-methyl-5-oxo-2H-pyrrol-2-yl) N-benzylcarbamate], the “Germination (%)” value in data set [1] (setting [2]) is on record as 44.8%. As for `CC1=CC(OC(=O)NCc2ccccc2)N(CC(F)(F)F)C1=O` (stereo not shown) [Ia-5, [4-methyl-5-oxo-1-(2,2,2-trifluoroethyl)-2H-pyrrol-2-yl]N-benzylcarbamate], in data set [1] (setting [2]), the “Germination (%)” value is recorded as 16.2%.
